From publication PMC7587356, “High-Throughput Screening for Inhibitors of the SARS-CoV-2 Protease Using a FRET-Biosensor” (Molecules, 2020) come the findings set out here.

In the experiment the target is SARS-CoV-2 3CLpro (Severe acute respiratory syndrome coronavirus 2, UniProt P0DTD1). Kind of experiment: biochemical. Set-up: Replicate_1 / Replicate_2 / mean / mean (LOPAC_screen_w_protease): unit not given here. Particulars: for inhibition at 5 µM: 4 h. In kind it is biochemical.
[1] abbreviates: sheet LOPAC_screen_w_protease, LOPAC1280 primary screen with protease, 5 µM compound, mean of the two replicates.
Where [2] appears, read: sheet LOPAC_screen_w_protease, LOPAC1280 primary screen with protease, 5 µM compound, replicate 1.
Where [3] appears, read: sheet LOPAC_screen_w_protease, LOPAC1280 primary screen with protease, 5 µM compound, replicate 2.
[4] abbreviates: sheet LOPAC_screen_w_protease, LOPAC1280 primary screen with protease, 5 µM compound, mean of the two replicates, read-out: mean.
Where [5] appears, read: sheet LOPAC_screen_w_protease, LOPAC1280 primary screen with protease, 5 µM compound, replicate 1, read-out: Replicate_1.
[6] abbreviates: sheet LOPAC_screen_w_protease, LOPAC1280 primary screen with protease, 5 µM compound, replicate 2, read-out: Replicate_2.
Setting [7] is: sheet LOPAC_screen_w_protease, primary screen of LOPAC1280 at 5 µM with protease, mean of the two replicates, read-out: mean.
The mark [8] stands for this setting: sheet LOPAC_screen_w_protease, primary screen of LOPAC1280 at 5 µM with protease, replicate 1, read-out: Replicate_1.
Where [9] appears, read: sheet LOPAC_screen_w_protease, primary screen of LOPAC1280 at 5 µM with protease, replicate 2, read-out: Replicate_2.
The mark [10] stands for this setting: sheet LOPAC_screen_w_protease, primary screen at 5 µM, mean of two replicates, read-out: mean (LOPAC screen with protease).
The mark [11] stands for this setting: sheet LOPAC_screen_w_protease, primary screen at 5 µM, replicate 1, read-out: Replicate_1 (LOPAC screen with protease).
Where [12] appears, read: sheet LOPAC_screen_w_protease, primary screen at 5 µM, replicate 2, read-out: Replicate_2 (LOPAC screen with protease).
The mark [13] stands for this setting: sheet LOPAC_screen_w_protease, LOPAC1280 at 5 µM, mean of two replicates.
Setting [14] is: sheet LOPAC_screen_w_protease, LOPAC1280 at 5 µM, replicate 1.
Setting [15] is: sheet LOPAC_screen_w_protease, LOPAC1280 at 5 µM, replicate 2.
The mark [16] stands for this setting: sheet LOPAC_screen_w_protease, primary screen with protease, compound at 5 µM, mean of two replicates, read-out: mean.
[17] abbreviates: sheet LOPAC_screen_w_protease, primary screen with protease, compound at 5 µM, replicate 1, read-out: Replicate_1.
Setting [18] is: sheet LOPAC_screen_w_protease, primary screen with protease, compound at 5 µM, replicate 2, read-out: Replicate_2.
Where [19] appears, read: sheet LOPAC_screen_w_protease, primary screen with protease, mean of two replicates, read-out: mean.
Setting [20] is: sheet LOPAC_screen_w_protease, primary screen with protease, replicate 1, read-out: Replicate_1.
[21] abbreviates: sheet LOPAC_screen_w_protease, primary screen with protease, replicate 2, read-out: Replicate_2.

Where a name gives a salt, the structure may show the parent alone. Read-outs that look alike come from different tables or passages of the source.

In turn, `CC1OC(C[N+](C)(C)C)CS1.[I-]` (stereo not drawn) [OXA-22 iodide] yielded a mean under setting [1] of 6.327. The same compound returned a Replicate_1 under setting [2] of 7.065. The compound further registered a Replicate_2 under setting [3] of 5.588.
Consider `CC1COc2c(N3CCN(C)CC3)c(F)cc3c(=O)c(C(=O)O)cn1c23` (stereo not drawn) [Ofloxacin], for which the inhibition at 5 µM under setting [4] turned out to be 6.37%, the inhibition at 5 µM under setting [5] came to 5.61% and the inhibition at 5 µM under setting [6] amounted to 7.14%.
On the same counts, the results for `Cn1cnc2c(NCc3ccccc3)nc(NCCO)nc21` [Olomoucine] are 4.92%, 3.02% and 6.83%.
Take `C[C@@H]1O[C@@H](O[C@H]2C[C@@H](O)[C@]3(CO)[C@H]4[C@H](O)C[C@]5(C)[C@@H](C6=CC(=O)OC6)CC[C@]5(O)[C@@H]4CC[C@]3(O)C2)[C@H](O)[C@H](O)[C@H]1O` [Ouabain]: the inhibition at 5 µM turned out to be 3.98% (read-out: Replicate_1), 1.68% (read-out: Replicate_2) and 2.83% (read-out: mean).
On to `O=C(O)CCc1nc(-c2ccccc2)c(-c2ccccc2)o1` [Oxaprozin], for which the inhibition at 5 µM came out at 3.59% (read-out: Replicate_1), 3.25% (read-out: Replicate_2) and 3.42% (read-out: mean).
Take `O=c1[nH]c2ccccc2n1CCCN1CCN(C(c2ccccc2)c2ccccc2)CC1` [Oxatomide]: the inhibition at 5 µM runs as follows: under setting [4], 5.24%; under setting [5], 4.62%; under setting [6], 5.86%.
As to `NC(=O)CN1CC(O)CC1=O` (stereo not drawn) [Oxiracetam], the inhibition at 5 µM under setting [7] was 3.68%, the inhibition at 5 µM under setting [8] was found to be 3.64% and the inhibition at 5 µM under setting [9] turned out to be 3.71%.
Taken in the same sequence, the figures for `CCn1cc(C(=O)O)c(=O)c2cc3c(cc21)OCO3` [Oxolinic acid] were 3.24%, 3.47% and 3%.
Regarding `C[N+](C)(C)CC#CCN1CCCC1=O` [Oxotremorine methiodide], the inhibition at 5 µM under setting [10] was found to be 7.27%, the inhibition at 5 µM under setting [11] turned out to be 7.16% and the inhibition at 5 µM under setting [12] stood at 7.38%.
`O=C(O)/C=C/C(=O)O.O=C(O)/C=C/C(=O)O.O=C(O)/C=C/C(=O)O.O=C1CCCN1CC#CCN1CCCC1.O=C1CCCN1CC#CCN1CCCC1` [Oxotremorine sesquifumarate salt]: the mean under setting [1] stood at 4.476. In addition, under setting [2], the Replicate_1 amounted to 3.394. The same compound returned a Replicate_2 under setting [3] of 5.5586.
As for `CCN(CC)CC#CCOC(=O)C(O)(c1ccccc1)C1CCCCC1` (stereo not drawn) [Oxybutynin Chloride], the inhibition at 5 µM under setting [4] was determined as 4.78%, the inhibition at 5 µM under setting [5] turned out to be 4.91% and the inhibition at 5 µM under setting [6] worked out at 4.65%.
Taken in the same sequence, the figures for `Cc1cc(C(C)(C)C)c(O)c(C)c1CC1=NCCN1` [Oxymetazoline hydrochloride] were 5.36%, 4.63% and 6.09%.
As for `Nc1ccc(CCN2CCN(c3cccc(C(F)(F)F)c3)CC2)cc1` [PAPP], for the setting “sheet LOPAC_screen_w_protease, LOPAC1280 primary screen at 5 µM, with protease, mean of two replicates”, the mean is -1.528. Further, the Replicate_1 (sheet LOPAC_screen_w_protease, LOPAC1280 primary screen at 5 µM, with protease, replicate 1) is -1.095. Further, the Replicate_2 (sheet LOPAC_screen_w_protease, LOPAC1280 primary screen at 5 µM, with protease, replicate 2) was -1.96.
Take `COc1cccc(-c2cc(=O)c3ccccc3o2)c1N` [PD 98,059]: the Replicate_1 worked out at 3.541, the Replicate_2 is listed as 1.402 and the mean was found to be 2.471.
As for `Cc1cccc(C(=O)NCN2CCN(c3ccccc3C#N)CC2)c1.O=C(O)/C=C\C(=O)O` [PD 168,077 maleate], the mean under setting [13] came to 1.169. Besides, the Replicate_1 under setting [14] is 0.792. The compound further yielded a Replicate_2 under setting [15] of 1.545.
Take `CCC(C)N(C)C(=O)c1cc2ccccc2c(-c2ccccc2Cl)n1` (stereo not drawn) [PK 11195]: the inhibition at 5 µM reads like this: under setting [16], 3.14%; under setting [17], 1.87%; under setting [18], 4.41%.
Under “sheet LOPAC_screen_w_protease, primary screen with protease, 5 µM, mean of two replicates”, `Cc1nc(N=Nc2ccc(S(=O)(=O)O)cc2S(=O)(=O)O)c(COP(=O)(O)O)c(C=O)c1O` [PPADS] showed a mean of 0.05886. Where the note is “sheet LOPAC_screen_w_protease, primary screen with protease, 5 µM, replicate 1”, this compound registered a Replicate_1 of -0.6012. For the setting “sheet LOPAC_screen_w_protease, primary screen with protease, 5 µM, replicate 2”, the Replicate_2 is recorded as 0.7189.
Take `Cc1nc(N=Nc2cc(S(=O)(=O)[O-])c3cc([N+](=O)[O-])cc(S(=O)(=O)[O-])c3c2)c(COP(=O)([O-])[O-])c(C=O)c1O.[Na+].[Na+].[Na+].[Na+]` [PPNDS tetrasodium]: the mean under setting [1] was determined as 5.708. In addition, under setting [2], the Replicate_1 is recorded as 4.956. Under setting [3], the Replicate_2 turned out to be 6.46.
As to `O=C(OCCN1CCOCC1)C1(c2ccccc2)CCCCC1` [PRE-084], the mean (sheet LOPAC_screen_w_protease, primary screen of LOPAC1280 at 5 µM with protease, mean of the two replicates) came to 3.777. For the same compound, the Replicate_1 (sheet LOPAC_screen_w_protease, primary screen of LOPAC1280 at 5 µM with protease, replicate 1) turned out to be 2.6752. In addition, the Replicate_2 (sheet LOPAC_screen_w_protease, primary screen of LOPAC1280 at 5 µM with protease, replicate 2) came to 4.879.
Turning to `CC(=O)O[C@H]1C[C@@H]2CC[C@@H]3[C@H](CC[C@@]4(C)[C@H]3C[C@H]([N+]3(C)CCCCC3)[C@@H]4OC(C)=O)[C@@]2(C)C[C@@H]1[N+]1(C)CCCCC1` [Pancuronium bromide], the inhibition at 5 µM runs as follows: under setting [7], 3.86%; under setting [8], 2.32%; under setting [9], 5.41%.
On to `COc1ccc(Cc2nccc3cc(OC)c(OC)cc23)cc1OC` [Papaverine hydrochloride], for which the inhibition at 5 µM under setting [4] was found to be 5.63%, the inhibition at 5 µM under setting [5] is 5.9% and the inhibition at 5 µM under setting [6] is 5.37%.
Take `NC[C@@H]1O[C@H](O[C@H]2[C@@H](O)[C@H](O[C@@H]3[C@@H](O)[C@H](N)C[C@H](N)[C@H]3O[C@H]3O[C@H](CO)[C@@H](O)[C@H](O)[C@H]3N)O[C@@H]2CO)[C@H](N)[C@@H](O)[C@@H]1O` [Paromomycin sulfate]: the inhibition at 5 µM is, setting by setting: under setting [10], 7.62%; under setting [11], 8.4%; under setting [12], 6.83%.
Regarding `C=C1C(=O)O[C@H]2[C@H]1CC/C(C)=C/CC[C@@]1(C)O[C@@H]21` [Parthenolide], the inhibition at 5 µM reads like this: under setting [7], 3.43%; under setting [8], 3.99%; under setting [9], 2.86%.
For `CN1C(C)(C)CCCC1(C)C` [Pempidine tartrate], the inhibition at 5 µM under setting [19] amounted to 2.3%, the inhibition at 5 µM under setting [20] worked out at 2.5% and the inhibition at 5 µM under setting [21] came to 2.11%.
`CC(=O)CCCCn1c(=O)c2c(ncn2C)n(C)c1=O` [Pentoxifylline]: the inhibition at 5 µM under setting [16] came to 2.98%, the inhibition at 5 µM under setting [17] stood at 2.78% and the inhibition at 5 µM under setting [18] is 3.18%.
As for `C1CCc2nnnn2CC1` [Pentylenetetrazole], the inhibition at 5 µM (LOPAC1280 primary screen with protease, 5 µM compound, replicate 1, read-out: Replicate_1 (LOPAC_screen_w_protease)) turned out to be 0.452% and the inhibition at 5 µM (LOPAC1280 primary screen with protease, 5 µM compound, replicate 2, read-out: Replicate_2 (LOPAC_screen_w_protease)) is 2.75%. For the same compound, the “mean (LOPAC_screen_w_protease)” value (LOPAC1280 primary screen with protease, 5 µM compound, mean of two replicates) was determined as 1.601.
Regarding `CCCN1C[C@H](CSC)C[C@@H]2c3cccc4[nH]cc(c34)C[C@H]21` [Pergolide methanesulfonate], the inhibition at 5 µM is, setting by setting: (sheet LOPAC_screen_w_protease, primary screen with protease, 5 µM, mean of two replicates, read-out: mean) 0.241%; (sheet LOPAC_screen_w_protease, primary screen with protease, 5 µM, replicate 1, read-out: Replicate_1) 0.0285%; (sheet LOPAC_screen_w_protease, primary screen with protease, 5 µM, replicate 2, read-out: Replicate_2) 0.454%.
Take `OCCN1CCN(CCCN2c3ccccc3Sc3ccc(Cl)cc32)CC1` [Perphenazine]: the inhibition at 5 µM was determined as 1.14% (sheet LOPAC_screen_w_protease, LOPAC1280 at 5 µM, mean of two replicates, read-out: mean); 0.377% (sheet LOPAC_screen_w_protease, LOPAC1280 at 5 µM, replicate 1, read-out: Replicate_1); 1.91% (sheet LOPAC_screen_w_protease, LOPAC1280 at 5 µM, replicate 2, read-out: Replicate_2).
Under setting [13], `NCC(CP(=O)(O)O)c1ccc(Cl)cc1` (stereo not drawn) [Phaclofen] gave a mean of 1.154. The same compound showed a Replicate_1 under setting [14] of -0.2982. For the same compound, the Replicate_2 under setting [15] was 2.606.
On to `NC(=Nc1ccccc1)NC(=O)c1nc(Cl)c(N)nc1N` [Phenamil methanesulfonate], for which the inhibition at 5 µM under setting [19] was 2.43%, the inhibition at 5 µM under setting [20] turned out to be 2.05% and the inhibition at 5 µM under setting [21] came to 2.81%.
